pIC50: −log10 of the molar value. In brackets after ≈: the same amount, converted by molar mass.
Experiments:
[1] = system: Pseudomonas aeruginosa UI-18: wild-type (PA-7); assay: MIC determination, PA-7; format: cell-based; details: Table 2, lower of duplicate values
Description: The in vitro antibacterial activity of compounds described in the Examples was evaluated by minimum inhibitory concentration (MIC) testing according to Clinical and Laboratory Standards Institute (CLSI). See: Clinical and Laboratory Standards Institute. Methods for Dilution Antimicrobial Susceptibility Tests for Bacteria that Grow Aerobically; Approved Standard-Eighth Edition. CLSI document M7-A8 [ISBN 1-56238-689-1]. Clinical and Laboratory Standards Institute, 940 West Valley Road, Suite 1400, Wayne, Pa. 19087-1898 USA, 2006; also Clinical and Laboratory Standards Institute. Performance Standards for Antimicrobial Susceptibility Testing; Twentieth Informational Supplement. CLSI document M100-S20 [ISBN 1-56238-716-2]. Clinical and Laboratory Standards Institute.
The MIC determination is a standard laboratory method for evaluating the antibacterial activity of a compound. The MIC represents the lowest drug concentration that inhibits visible growth of bacteria following overnight incubation. […] Typically, the drug concentration range is broken down into 2-fold increments (e.g. 0.06 μg/mL, 0.12 μg/mL. 0.25 μg/mL, 0.50 μg/mL, 1.0 μg/mL, etc.) and the various drug concentrations are all individually incubated overnight with approximately the same number of bacteria. The MIC is then determined by visually inspecting the drug effect at each concentration, and identifying the lowest drug concentration that has inhibited bacterial growth as compared to the drug free control. Typically, bacteria continue to grow at drug concentrations lower than the MIC and don't grow at concentrations at and above the MIC.
The MIC values described in Table 2 and 3 below were derived from assays wherein each test compound was evaluated in duplicate. In cases where the duplicate values varied by 0-2-fold, the lower of the two values was reported below. Generally speaking, if the duplicate values varied by more than 2-fold, the assay was considered non-valid and was repeated until the variation between duplicate runs was ≦2-fold. In line with the CLSI guidelines referred to above, both control organisms and reference compounds were utilized in each MIC assay to provide proper quality control. MIC values generated with these control organisms and reference compounds were required to fall within a defined range for the assay to be considered valid and be included herein. Those skilled in the art will recognize that MIC values can and do vary from experiment to experiment. Generally speaking, it should be recognized that MIC values often vary +/−2-fold from experiment to experiment. While a single MIC is reported for each compound and each microorganism, the reader should not conclude that each compound was only tested once. Several of the compounds were subjected to multiple tests. The data reported in Tables 2 and 3 is reflective of the compounds relative activity and different MICs may have been generated on these occasions in line with the guidelines described above.
The following bacterial strains were used in these MIC determinations:
1) Pseudomonas aeruginosa UI-18: Wild-type, labeled as PA-7 in Tables 2 and 3;

[2] = system: Escherichia coli EC-1: VOGEL, mouse virulent; assay: MIC determination, EC-1; format: cell-based; details: Escherichia coli, read-out: EC-1 (MIC), Table 2, lower of duplicate values
In short: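 Duplicate runs differing by more than 2-fold were repeated, and otherwise the lower MIC was kept. The test organism was E. coli EC-1 (VOGEL, mouse virulent), incubated overnight across 2-fold compound dilutions following CLSI guidelines. The MIC was read visually as the lowest concentration inhibiting growth relative to drug-free control.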

[3] = system: Acinetobacter baumannii/haemolyticus, multidrug-resistant clinical isolate (AB-3167); assay: MIC determination, AB-3167; format: cell-based; details: Table 2, lower of duplicate values
In short: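 MIC read visually after overnight growth across 2-fold concentration steps in the CLSI dilution method against the multidrug-resistant clinical isolate. Duplicate determinations, lower value reported when within 2-fold, otherwise repeated; every run checked with control organisms and reference drugs.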

[4] = target: T1, Pseudomonas aeruginosa LpxC enzyme (Pseudomonas aeruginosa, UniProt P47205); assay: IC50 assay, LpxC enzyme from P. aeruginosa (PA LpxC enzyme IC50); format: biochemical; details: Table 2; LpxC enzyme 0.1 nM, 25° C., 1 hour; read-out: PA:IC50
T1 construct: made in house; host or cells: E. coli
T1 sequence (P47205 1-303): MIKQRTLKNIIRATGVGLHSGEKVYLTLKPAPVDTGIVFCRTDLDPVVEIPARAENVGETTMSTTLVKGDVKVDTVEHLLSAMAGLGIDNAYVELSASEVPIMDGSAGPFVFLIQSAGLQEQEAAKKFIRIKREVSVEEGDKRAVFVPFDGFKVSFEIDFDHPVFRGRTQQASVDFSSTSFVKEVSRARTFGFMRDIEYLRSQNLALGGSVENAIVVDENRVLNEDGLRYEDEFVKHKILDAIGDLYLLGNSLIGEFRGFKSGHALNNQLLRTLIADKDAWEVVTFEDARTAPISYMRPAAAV
In short: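 IC50 values came from percent conversion, referenced to a no-enzyme control. Conversion was read by RapidFire HTMS mass spectrometry after HCl quench of the 1 h enzyme reaction.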

| Structure (SMILES) | MIC [1] [µg/mL] | MIC [2] [µg/mL] | MIC [3] [µg/mL] | pIC50 [4] |
| --- | --- | --- | --- | --- |
| C[C@@](CCn1cc(F)c(-c2ccc3c(c2)OC(F)(F)O3)cc1=O)(C(=O)NO)S(C)(=O)=O [Example 47, (2R)-4-[4-(2,2-Difluoro-1,3-benzodioxol-5-yl)-5-fluoro-2-oxopyridin-1(2H)-yl]-N-hydroxy-2-methyl-2-(methylsulfonyl)butanamide] | 0.5 (≈ 1.08 µM) | 0.25 (≈ 0.541 µM) | > 64 |  |
| C[C@@](CCn1cc(F)c(-c2ccc(OC3CC3)cc2)cc1=O)(C(=O)NO)S(C)(=O)=O [Example 46, (2R)-4-{4-[4-(Cyclopropyloxy)phenyl]-5-fluoro-2-oxopyridin-1(2H)-yl}-N-hydroxy-2-methyl-2-(methylsulfonyl)butanamide] | 0.5 (≈ 1.14 µM) | 0.125 (≈ 0.285 µM) | > 64 | 9.64 |
| C[C@@](CCn1cc(F)c(C#Cc2ccccc2)cc1=O)(C(=O)NO)S(C)(=O)=O [Example 48, (2R)-4-[5-Fluoro-2-oxo-4-(phenylethynyl)pyridin-1(2H)-yl]-N-hydroxy-2-methyl-2-(methylsulfonyl)butanamide] | 0.5 (≈ 1.23 µM) | 0.06 (≈ 0.148 µM) | > 64 | 9.26 |
| COc1ccc(-c2ccc(-c3cc(=O)n(CC[C@](C)(C(=O)NO)S(C)(=O)=O)cc3F)cc2)cn1 [Example 32, (2R)-4-{5-Fluoro-4-[4-(6-methoxypyridin-3-yl)phenyl]-2-oxopyridin-1(2H)-yl}-N-hydroxy-2-methyl-2-(methylsulfonyl)butanamide] | 1 (≈ 2.04 µM) | ≤ 0.06 | > 64 | 9.40 |
| Cc1cc(-c2cc(=O)n(CC[C@](C)(C(=O)NO)S(C)(=O)=O)cc2F)ccc1-n1nccn1 [Example 37, (2R)-4-{5-Fluoro-4-[3-methyl-4-(2H-1,2,3-triazol-2-yl)phenyl]-2-oxopyridin-1(2H)-yl}-N-hydroxy-2-methyl-2-(methylsulfonyl)butanamide] | 1 (≈ 2.16 µM) | 0.5 (≈ 1.08 µM) | > 64 |  |
| Cc1cc(-c2cc(=O)n(CC[C@](C)(C(=O)NO)S(C)(=O)=O)cc2F)ccc1F [Example 14, (2R)-4-[5-Fluoro-4-(4-fluoro-3-methylphenyl)-2-oxopyridin-1(2H)-yl]-N-hydroxy-2-methyl-2-(methylsulfonyl)butanamide] | 0.5 (≈ 1.21 µM) | 0.5 (≈ 1.21 µM) | > 64 | 9.12 |
| C[C@@](CCn1cc(F)c(-c2ccc(-n3nccn3)c(F)c2)cc1=O)(C(=O)NO)S(C)(=O)=O [Example 36, (2R)-4-{5-Fluoro-4-[3-fluoro-4-(2H-1,2,3-triazol-2-yl)phenyl]-2-oxopyridin-1(2H)-yl}-N-hydroxy-2-methyl-2-(methylsulfonyl)butanamide] | 1 (≈ 2.14 µM) | 0.5 (≈ 1.07 µM) | > 64 | 9.40 |
| C[C@@](CCn1cc(F)c(-c2ccc(Cl)cc2F)cc1=O)(C(=O)NO)S(C)(=O)=O [Example 16, (2R)-4-[4-(4-Chloro-2-fluorophenyl)-5-fluoro-2-oxopyridin-1(2H)-yl]-N-hydroxy-2-methyl-2-(methylsulfonyl)butanamide] | 0.5 (≈ 1.15 µM) | 0.25 (≈ 0.575 µM) | > 64 | 9.47 |
| C[C@@](CCn1cc(F)c(-c2ccc(S(F)(F)(F)(F)F)cc2)cc1=O)(C(=O)NO)S(C)(=O)=O [Example 12, (2R)-4-{5-Fluoro-2-oxo-4-[4-(pentafluoro-6λ-sulfanyl)phenyl]pyridin-1(2H)-yl}-N-hydroxy-2-methyl-2-(methylsulfonyl)butanamide] | 4 (≈ 7.87 µM) | 4 (≈ 7.87 µM) | > 64 | 8.94 |
| CCOc1ccc(-c2cc(=O)n(CC[C@](C)(C(=O)NO)S(C)(=O)=O)cc2F)cc1 [Example 10, (2R)-4-[4-(4-Ethoxyphenyl)-5-fluoro-2-oxopyridin-1(2H)-yl]-N-hydroxy-2-methyl-2-(methylsulfonyl)butanamide] | 1 (≈ 2.34 µM) | 0.25 (≈ 0.586 µM) | > 64 | 9.08 |
| C[C@@](CCn1cc(F)c(-c2ccc(-n3nccn3)cc2)cc1=O)(C(=O)NO)S(C)(=O)=O [Example 26, (2R)-4-{5-Fluoro-2-oxo-4-[4-(2H-1,2,3-triazol-2-yl)phenyl]pyridin-1(2H)-yl}-N-hydroxy-2-methyl-2-(methylsulfonyl)butanamide] | 0.25 (≈ 0.556 µM) | ≤ 0.06 | > 64 | 10.13 |
| COc1ccc(-c2cc(=O)n(CC[C@](C)(C(=O)NO)S(C)(=O)=O)cc2F)c(F)c1 [Example 27, (2R)-4-[5-Fluoro-4-(2-fluoro-4-methoxyphenyl)-2-oxopyridin-1(2H)-yl]-N-hydroxy-2-methyl-2-(methylsulfonyl)butanamide] | 0.5 (≈ 1.16 µM) | 0.25 (≈ 0.581 µM) | > 64 | 10.30 |
| COc1c(-c2ccccc2)c(F)cn(CC[C@](C)(C(=O)NO)S(C)(=O)=O)c1=O [Example 39, (2R)-4-(5-Fluoro-3-methoxy-2-oxo-4-phenylpyridin-1(2H)-yl)-N-hydroxy-2-methyl-2-(methylsulfonyl)butanamide] | 8 (≈ 19.4 µM) | 4 (≈ 9.7 µM) | 64 (≈ 155 µM) | 8.09 |
| [2H]C([2H])([2H])C([2H])([2H])Oc1ccc(-c2cc(=O)n(CC[C@](C)(C(=O)NO)S(C)(=O)=O)cc2F)cc1 [Example 45, (2R)-4-[4-(4-Pentadeuteroethoxyphenyl)-5-fluoro-2-oxopyridin-1(2H)-yl]-N-hydroxy-2-methyl-2-(methylsulfonyl)butanamide] | 0.5 (≈ 1.16 µM) | 0.125 (≈ 0.29 µM) | > 64 | 9.26 |
| Cc1cccc(-c2cc(=O)n(CC[C@](C)(C(=O)NO)S(C)(=O)=O)cc2F)c1F [Example 2, (2R)-4-[5-Fluoro-4-(2-fluoro-3-methylphenyl)-2-oxopyridin-1(2H)-yl]-N-hydroxy-2-methyl-2-(methylsulfonyl)butanamide] | 0.25 (≈ 0.603 µM) | 0.25 (≈ 0.603 µM) | > 64 | 9.23 |
| COc1ccc(-c2cc(=O)n(CC[C@](C)(C(=O)NO)S(C)(=O)=O)cc2F)cc1 [Example 28, (2R)-4-[5-Fluoro-4-(4-methoxyphenyl)-2-oxopyridin-1(2H)-yl]-N-hydroxy-2-methyl-2-(methylsulfonyl)butanamide] | 0.5 (≈ 1.21 µM) | 1 (≈ 2.42 µM) | > 64 | 9.25 |
| Cc1cccc(-c2cc(=O)n(CC[C@](C)(C(=O)NO)S(C)(=O)=O)cc2F)c1 [Example 13, (2R)-4-[5-Fluoro-4-(3-methylphenyl)-2-oxopyridin-1(2H)-yl]-N-hydroxy-2-methyl-2-(methylsulfonyl)butanamide] | 1 (≈ 2.52 µM) | 1 (≈ 2.52 µM) | > 64 | 8.98 |
| C[C@@](CCn1cc(F)c(-c2ccc3c(c2)CCO3)cc1=O)(C(=O)NO)S(C)(=O)=O [Example 5, (2R)-4-[4-(2,3-Dihydro-1-benzofuran-5-yl)-5-fluoro-2-oxopyridin-1(2H)-yl]-N-hydroxy-2-methyl-2-(methylsulfonyl)butanamide] | 1 (≈ 2.36 µM) | 1 (≈ 2.36 µM) | > 64 | 9.09 |
